The test system of this assay is RAW264.7. As to the kind of experiment: Antiinflammatory activity in mouse RAW264.7 cells assessed as inhibition of LPS-induced NO production incubated for 24 hrs in presence of LPS by Griess reagent-based assay. Type of assay: functional, cell-based. As to conditions: RAW264.7, 24 h. For orientation: The Griess reaction detects nitrite, a stable product of nitric oxide.
Usually IC50 stands for the point on the concentration scale where inhibition reaches its midpoint. With `C/C(=C\[C@H]1C[C@@](O)([C@@H]2CC[C@]34C[C@]23C=CC2[C@@]4(C)[C@H](O)C[C@H]3C(C)(C)/C(=C/C(=O)c4ccccc4)C(=O)C[C@]23C)C(=O)O1)CO` (some centres undefined), the concentration for half-maximal inhibition (IC50) was found to be 1.6 µM.
In the case of `C/C(=C\[C@H]1C[C@@](O)([C@@H]2CC[C@]34C[C@]23C=CC2[C@@]3(C)CC(=O)/C(=C\C(=O)c5ccccc5)C(C)(C)[C@@H]3CC(=O)[C@]24C)C(=O)O1)CO` (some centres undefined), the 50% inhibitory concentration (IC50) worked out at 3.5 µM.
On to `C/C(=C\[C@H]1C[C@@](O)([C@@H]2CC[C@]34C[C@]23C=CC2[C@]3(C)C(CC(=O)[C@]24C)C(C)(C)[C@@]2(CC(=O)c4ccccc4)O[C@@H]3OC2=O)C(=O)O1)CO` (some centres undefined), for which the IC50 was 11.4 µM.
As to `C[C@@H]1C[C@H]2[C@@H]3CCC4=CC(=O)C=C[C@]4(C)[C@@]3(F)[C@@H](O)C[C@]2(C)[C@@]1(O)C(=O)CO` [DEXAMETHASONE], the IC50 was 6.9 µM.
